US6319952A, “Compositions and methods for reversibly increasing permeability of biomembranes” (D-Pharm Ltd., priority 1997, dated 2001)

Tests used:
[1] = test system: blood-brain barrier (BBB); assay: Effect of branched chain fatty acids on BBB permeability by qualitative Evan's Blue (EB) evaluation in rats; format: in vivo, rat (male Sprague-Dawley)
Method: Evaluation of Effect of Branched Fatty Acids on Blood-brain Barrier Permeability
(§1) The experiments were carried out on male Sprague-Dawley rats weighing 250-320 gr. They were anesthetized with Rampun-Imalgen. The right common carotid artery was exposed.
The test compounds were dissolved in 0.1M phosphate buffered physiological saline (pH=7.4) at the following test concentrations: 1.6; 8; 20; 40; 200 and 1000 μg/ml.
(§2) The test compound was infused into the right common carotid artery at a rate of 6 ml/min. for 30 s. The control rats were infused with buffer. Evan's Blue (EB) solution at a concentration of […] (2 g Evan's Blue, 0.9 g NaCl in 100 ml water) was injected intravenously 50 minutes prior to the termination of the experiment.
In the case of 45 min experiment, five minutes prior to the infusion of the tested material, 4 ml/kg body wt dose of Evans Blue solution was injected intravenously.
(§3) At the end of the experimental time period the animals were perfused with 100 ml of saline solution through the heart and decapitated. The degree of BBB opening, in terms of extravasation of Evan's Blue albumin, was graded on the basis of visual assessment of the degree of staining of the brain ato the method of Rapoport et al. (Rapoport et al., 1980, Amer. J. Physiol. 258, 421-431), and the results are presented in Tables 1 and 2.
The results presented are qualitative with four degrees of Evan's Blue extravasation according to Rapoport et al. Minus signs represents no staining and three plus signs represent maximal staining.

[2] = test system: blood-brain barrier (BBB); assay: Reversibility of effect of M 3/14 on BBB permeability (Evan's Blue absorbance of brain extract); format: in vivo, rat (male Sprague-Dawley); conditions: for Quantity EB: 620 nm, per gram wet weight
Method: as §1
The test compounds were dissolved in 0.1M phosphate buffered physiological saline (pH=7.4) at the following test concentrations: 1.6; 8; 20; 40; 200 and 1000 μg/ml. […] The resulting pH of the test solutions was in the range of 8.0 to 8.5, and contols for the pH effect were performed up to pH 9.
as §2, §3
A second set of experiments was designed to determine whether the BBB disruption is reversible or irreversible after M 3/14 injection. The extravasation of Evan's Blue-albumin was evaluated at different time points between 3 h and 72 h after M 3/14 injection in concentrations of 8 and 20 μg/ml.
The experiment was conducted on an average of three individual animals per dose per time point. The brains were removed and extracted in dimethylformamide for […]. at room temp. The extract was centrifuged and the supernatant collected and measured for absorbance at 620 nm. The results are presented per gram wet weight of the tissue.

rat brain = assay: Water concentration in the rat brain after intra-arterial administration (cerebral edema); format: in vivo; conditions: 20 μg/ml, 24 h
Method: The rats were treated by intraarterial infusion of M 3/14 20 μg/ml or phosphate buffered saline as control. After 24 hours the rats were decapitated, the brain was removed and dried at 110° C. until constant weight was achieved (normally three days). The percent water was calculated by the following equation:
% water=(wet sample weight-dry sample weight)×100/(wet sample weight)
This procedure is according to Karpiak and Mahadik (1984, J. Neurosci. Res. 12, 485-492).

rats = conditions: rat, in vivo
[3] = Acute intravenous toxicity test in mice; format: in vivo; conditions: mouse, in vivo; intravenous administration to mice
Method: (§4) An acute intravenous toxicity test was performed to study the toxicity of the branched fatty acids in mice. The study included mortality and behavioral observations during three days. The rate of mortality is represented in the Table 5. M 3/14 caused mortality at a dose of 175 mg/kg; M3/12 at a dose of 75 mg/kg and M 3/10 at a dose of 100 mg/kg. Death was observed ten minutes after i.v. injection. In sub-lethal doses no significant behavior changes were observed.

mice = assay: Acute intravenous toxicity test in mice; format: in vivo; conditions: i.v.
Method: as §4

[4] = test system: bovine brain capillary endothelial cells in co-culture with astrocytes; assay: Transcellular permeability (albumin-FITC clearance), in vitro coculture model of the BBB; format: cell-based; conditions: 0.24 mg/ml
Method: 1 hr incubation with the test material and five different concentrations: 0.04; 0.08; 0.16; 0.24; 0.32 mg/ml corresponding to 0.125; 0.25; 0.5; 0.75; 1×10^-3 M, were chosen for this experiment.
Stock solution of DP-BFA was added directly to the coculture medium (upper compartment) in order to obtain a dilution of 1:40.
Permeability studies was carried out on the monolayer of endothelial cells using a transcellular tracer: albumin-FITC (fluorescein isothiocyanate), MW=66500. There is no albumin receptor on endothelial cells. Albumin crossed the monolayer by a non-specific transport.
To obtain a concentration-dependent transport parameter, the clearance principle was used like sucrose or inulin (see paragraph 2.2.).
Albumin-FITC was used on endothelial cells at the concentration of 100 μg/ml in Ringer-Hepes 0.4% albumin.
The fluorescence of each sample was determined at λexcitation of 495 and λemission of 525 using a fluorescence spectrophotometer F-2000 (Hitachi).
In that case, the results are presented as clearance (μl) in function of time (min) and clearance at 180 minutes for each condition.

[5] = test system: bovine brain capillary endothelial cells in co-culture with astrocytes; assay: Reversibility kinetic of DP-BFA effect on the paracellular permeability of the BBB in vitro; format: cell-based
Method: Endothelial cells are cocultured 12 days, and on the twelfth day DP-BFA was added to the cultures for one hour. The cultures were then washed to remove the test material and cultured for a further period of 3, 6 or 18 hours without DP-BFA.
Permeability studies were carried out on the monolayer of endothelial cells, using two paracellular tracers: inulin-^3 H and sucrose-^14C.

[6] = 0.16 mg/ml 1 hr, then 3 hrs fresh medium
[7] = 0.16 mg/ml 1 hr, then 6 hrs fresh medium
[8] = 0.16 mg/ml 1 hr, then 18 hrs fresh medium

CCCCCCCCCCCCCCC(CCC)C(=O)O (stereo not drawn) [M 3/14, 2-propylhexadecanoic acid]
Visual EB ([1]; 1.6 μg/ml (5 μM/ml), 180 min): -
Visual EB ([1]; 8 μg/ml (25 μM/ml), 180 min): +
Visual EB ([1]; 20 μg/ml (62.5 μM/ml), 180 min): +
Visual EB ([1]; 40 μg/ml (125 μM/ml), 45 min): ++
Visual EB ([1]; 40 μg/ml (125 μM/ml), 180 min): ++
Visual EB ([1]; 125 μM, 180 min, intracarotid infusion): ++
Visual EB ([1]; 200 μg/ml (625 μM/ml), 45 min): +++
Visual EB ([1]; 625 μM, 45 min, intracarotid infusion): +++
Visual EB ([1]; 1000 μg/ml (3125 μM/ml), 45 min): +++
BBB permeability enhancement, potency ranking ([1]; Table 1 compounds): most potent BBB permeability enhancer
Quantity EB ([2]; 8 μg/ml, 3 h): 0.087 absorbance units
Quantity EB ([2]; 8 μg/ml, 24 h): 0.074 absorbance units
Quantity EB ([2]; 20 μg/ml, 3 h): 0.129 absorbance units
Quantity EB ([2]; 20 μg/ml, 24 h): 0.129 absorbance units
Quantity EB ([2]; 20 μg/ml, 72 h): 0.015 absorbance units
duration of effect on BBB permeability ([2]; depending on the dose used (8 and 20 μg/ml)): exceed 24 hours
cerebral edema (rat brain): no cerebral edema effect
water content of brain, treated vs non treated rats (rat brain): no significant difference
Brain weight (rat brain; intra-arterial): 1.494 g
Brain weight after drying (rat brain; intra-arterial): 0.311 g
Water (rat brain; intra-arterial): 79.19%
brain edema or general edema (rats): no brain edema or general edema was observed
change of behavior (rats): No change of behavior was observed
LD50 at 72 h [3]: 150 to 175 mg/kg
Mortality (mice; 50 mg/kg, 5 mg/ml): 0/3
Mortality (mice; 100 mg/kg, 5 mg/ml): 0/3
Mortality (mice; 150 mg/kg, 10 mg/ml): 0/3
Mortality (mice; 175 mg/kg, 10 mg/ml): 3/3
dose causing mortality (mice; mice, three days): 175 mg/kg
non-specific transcellular transport ([4]; 1 hr incubation): increase of non-specific transcellular transport
activation at 240 µg/mL ([4]; Bos taurus, 1 hour incubation, read-out: increase in permeability of the monolayer for albumin (clearance at 180 minutes)): 268%
decrease in paracellular permeability for inulin (clearance at 45 minutes) [5, 6]: 58%
decrease in paracellular permeability for sucrose (clearance at 45 minutes) [5, 6]: 56%
decrease in paracellular permeability for inulin (clearance at 45 minutes) [5, 7]: 58%
decrease in paracellular permeability for sucrose (clearance at 45 minutes) [5, 7]: 57%
decrease in paracellular permeability for inulin (clearance at 45 minutes) [5, 8]: 76%
decrease in paracellular permeability for sucrose (clearance at 45 minutes) [5, 8]: 72%
reversibility of DP-BFA effect ([5]; 0.16 mg/ml 1 hr, after 3, 6 and 18 hrs): incomplete reversibility
paracellular transport after removal ([5]; after 3 hours, preliminary kinetic study): a decrease in the paracellular transport could be observed
